Laboratory results reported in PMC5654968 (NPJ Systems Biology and Applications, 2017).
Read-outs that look alike come from different tables or passages of the source.

Type: in vivo, rat
Procedure: Distilled water and saline were administered as vehicle to rats in each control group. […] Plasma cytokine levels were measured by ELISA or multiplex immunoassay; common metabolites and lipid mediators were analyzed by GC-MS/MS and LC-MS/MS, respectively.
Pathway maps of lipid mediators were created by using CellDesigner 4.4 software (http://www.celldesigner.org). We evaluated the effects of the treatments on specific lipid mediators and categorized them according to COX, CYP and LOX pathways by Fisher’s exact test. The proinflammatory and anti-inflammatory indices were analyzed as described by Tam et al. with modification.[22]

[1] = PM/P (polyI:C+maoto vs polyI:C), 2h
[2] = PM/P (polyI:C+maoto vs polyI:C), 4h
[3] = first value of an incomplete line, time (2h or 4h) not assignable

Row | Structure (SMILES) | log2FC of plasma level (M/C (maoto vs control), 2h) | log2FC of plasma level (M/C (maoto vs control), 4h) | log2FC of plasma level (P/C (polyI:C vs control), 2h) | log2FC of plasma level (P/C (polyI:C vs control), 4h) | log2FC of plasma level [1] | log2FC of plasma level [2] | log2FC of plasma level | log2FC of plasma level [3]
1 | CCCCC/C=C\C/C=C\CC(O)/C=C/C=C\CCCC(=O)O (stereo not drawn) [9-HETE] | 0.09 | -0.42 | -0.22 | 0.63 | 0.30 | -1.09 | – | –
2 | CC/C=C\C=C\C(O)C/C=C\C/C=C\C/C=C\C/C=C\CCC(=O)O (stereo not drawn) [16-HDoHE] | 0.10 | -0.60 | -0.12 | 0.38 | 0.16 | -0.76 | – | –
3 | CCCCC/C=C\C/C=C\C/C=C\CC(O)C1CCCC(=O)O1 (stereo not drawn) [5,6-DHET-lactone] | – | – | – | – | – | – | -0.87 | 0.53
4 | CCCCC/C=C\C=C\C(O)CCCCCCCC(=O)O (stereo not drawn) [9-HODE] | -0.05 | -0.53 | -0.02 | 0.50 | -0.13 | -0.97 | – | –
5 | CCCCCC1OC1C/C=C\C/C=C\C/C=C\CCCC(=O)O (stereo not drawn) [14,15-EET] | -0.23 | -0.59 | -0.40 | 0.01 | 0.02 | -0.47 | – | –
6 | CC/C=C\C/C=C\C=C\C(O)C/C=C\C/C=C\C/C=C\CCC(=O)O (stereo not drawn) [13-HDoHE] | 0.03 | -0.44 | 0.01 | 0.18 | -0.06 | -0.62 | – | –
7 | CCCCCC(O)/C=C/C=C\CCCCCCCC(=O)O (stereo not drawn) [13-HODE] | 0.14 | -0.46 | 0.15 | 0.36 | -0.11 | -0.80 | – | –
8 | CCCCC/C=C/C=C/C(=O)CCCCCCCC(=O)O [9-KODE] | -0.09 | -0.95 | -0.17 | 0.97 | -0.03 | -1.16 | – | –
9 | CCCCC/C=C\CC(O)C(O)CCCCCCCC(=O)O (stereo not drawn) [9,10-DiHOME] | 0.50 | -0.34 | 0.31 | -0.14 | 0.19 | -0.10 | – | –
10 | CCCCCC(=O)CCC1C(O)CC(O)C1CC(=O)CCCCC(=O)O (stereo not drawn) [6,15-diketo-13,14-dihydro-PGF1α] | – | – | – | – | – | – | -0.52 | 1.63
11 | CC/C=C\CC(O)/C=C/C=C\C/C=C\C/C=C\C/C=C\CCC(=O)O (stereo not drawn) [17-HDoHE] | 0.30 | -0.62 | -0.12 | 0.47 | 0.18 | -0.79 | – | –
12 | CCCCC/C=C\C/C=C\C=C\C(O)C/C=C\CCCC(=O)O (stereo not drawn) [8-HETE] | 0.09 | -0.40 | -0.12 | 0.39 | 0.05 | -0.62 | – | –
13 | CCCCCC(O)/C=C/C=C\C/C=C\CCCCCCC(=O)O (stereo not drawn) [15-HETrE] | 0.77 | 0.00 | 0.20 | 1.11 | 0.25 | -0.98 | – | –
14 | CCC(O)CC/C=C\C/C=C\C/C=C\C/C=C\CCCC(=O)O (stereo not drawn) [18-HETE] | 0.16 | -0.08 | 0.25 | -0.05 | -0.26 | -0.07 | – | –
15 | O=C(O)CCC/C=C\C/C=C\C/C=C\C/C=C\CCCCCO [20-HETE] | 0.51 | -0.20 | -0.23 | 0.52 | 0.70 | 0.06 | – | –
16 | CC/C=C\C/C=C\C/C=C\C/C=C\C=C\C(O)CCCC(=O)O (stereo not drawn) [5-HEPE] | 0.39 | -0.35 | 0.16 | 0.04 | 0.10 | -0.47 | – | –
17 | CC/C=C\C/C=C\CC(O)/C=C/C=C\C/C=C\C/C=C\CCC(=O)O (stereo not drawn) [14-HDoHE] | 0.82 | -0.39 | -0.32 | 0.40 | 0.58 | -0.58 | – | –

Row | Structure (SMILES) | log2FC of plasma level (M/C (maoto vs control), 2h) | log2FC of plasma level (M/C (maoto vs control), 4h) | log2FC of plasma level (P/C (polyI:C vs control), 2h) | log2FC of plasma level (P/C (polyI:C vs control), 4h) | log2FC of plasma level [1] | log2FC of plasma level [2] | log2FC of plasma level | log2FC of plasma level [3]
18 | CCCCC/C=C\CC1OC1CCCCCCCC(=O)O (stereo not drawn) [9,10-EpOME] | 0.04 | -0.80 | 0.10 | 0.36 | -0.30 | -1.14 | – | –
19 | CC/C=C\C[C@H](O)/C=C/[C@H]1C(=O)C[C@H](O)[C@@H]1C/C=C\CCCC(=O)O [PGD3] | – | – | – | – | – | – | -0.55 | -0.03
20 | CCCCCC(=O)CC[C@@H]1[C@@H](C/C=C\CCCC(=O)O)[C@@H](O)C[C@H]1O [13,14-dihydro-15-keto-PGF2α] | 0.41 | -0.29 | 0.56 | -0.30 | 0.05 | 0.38 | – | –
21 | CCCCC/C=C\C/C=C\C/C=C\CC1OC1CCCC(=O)O (stereo not drawn) [5,6-EET] | -0.22 | -0.49 | -0.26 | 0.11 | 0.12 | -0.56 | – | –
22 | CC/C=C\C/C=C\C/C=C\C/C=C\CC(O)C(O)CCCC(=O)O (stereo not drawn) [5,6-DiHETE] | -0.03 | -0.23 | -0.19 | 0.03 | -0.44 | -0.44 | – | –
23 | CCCC(O)C/C=C\C/C=C\C/C=C\C/C=C\CCCC(=O)O (stereo not drawn) [17-HETE] | 0.20 | 0.07 | 0.59 | 0.13 | 0.42 | 0.16 | – | –
24 | CCCCCC=CCC=CCC=CC=CC(=O)CCCC(=O)O [5-KETE] | -0.29 | -0.45 | -0.18 | 0.36 | -0.02 | -0.67 | – | –
25 | CCCCCC(O)/C=C/C=C\CCCCCCCCCC(=O)O (stereo not drawn) [15-HEDE] | 0.33 | -0.76 | -0.05 | 0.71 | 0.14 | -1.18 | – | –
26 | CCCCC[C@H](O)/C=C/[C@H]1[C@H](O)CC(=O)[C@H]1C/C=C\CCCC(=O)O [8-iso-PGE2] | -0.45 | -0.43 | -0.13 | 0.77 | -0.23 | -0.98 | – | –
27 | CCCCCC(O)C(O)C/C=C\C/C=C\C/C=C\CCCC(=O)O (stereo not drawn) [14,15-DHET] | 0.79 | 0.01 | 0.07 | 0.40 | 0.22 | -0.41 | – | –
28 | CCCCCC(=O)/C=C/C=C\CCCCCCCC(=O)O [13-KODE] | 0.39 | -1.68 | -0.08 | 0.50 | -0.15 | -1.45 | – | –
29 | CCCCCC(=O)CCC1C(O)CC(=O)C1CCC(=O)O (stereo not drawn) [13,14-dihydro-15-keto-tetranor-PGE2] | 0.05 | -0.80 | 2.37 | 2.09 | -0.40 | -2.03 | – | –
30 | CCCCC/C=C\C\C=C/C=C/C=C/[C@@H](SC[C@H](N)C(=O)O)[C@@H](O)CCCC(=O)O [LTE4] | -0.95 | -1.00 | 1.04 | 0.58 | -0.91 | -0.51 | – | –
31 | CCCCC(O)/C=C\C/C=C\C/C=C\C/C=C\CCCC(=O)O (stereo not drawn) [16-HETE] | 0.13 | -0.23 | 0.13 | 0.70 | -0.02 | -0.94 | – | –
32 | CC/C=C\C/C=C\CC(O)/C=C/C=C\C/C=C\CCCC(=O)O (stereo not drawn) [12-HEPE] | 1.09 | -0.37 | -0.06 | 0.02 | 0.67 | -0.27 | – | –
33 | CCCCC/C=C\CC(O)C(O)C/C=C\C/C=C\CCCC(=O)O (stereo not drawn) [11,12-DHET] | 0.90 | 0.13 | -0.15 | 0.23 | 0.19 | -0.31 | – | –
34 | CCCCC[C@H](O)/C=C/[C@@H]1[C@@H](CC(=O)CCCCC(=O)O)[C@@H](O)C[C@H]1O [6-keto-PGF1α] | 0.16 | 0.08 | 1.21 | 0.67 | -0.35 | 0.01 | – | –
